Measurements: the supplement of paper PMC13380429

Experiments:
Conditions in all cases: 72 h
Calu-3 [1] = assay: drug sensitivity score (DSS) for viability; higher = more toxic; extreme values may be limits of the assay
HepG2 [2] = assay: as above
U2OS [3] = assay: as above
Vero E6 [4] = assay: as above
Caco-2 [5] = assay: cell viability relative to DMSO; higher = less toxic
Calu-3 [6] = assay: as above
HepG2 [7] = assay: as above
Caco-2 [8] = assay: relative viability EC50 (midpoint between 100% and the lowest measured viability); higher = less toxic
Calu-3 [9] = assay: as above
HepG2 [10] = assay: as above
Caco-2 [11] = assay: drug sensitivity score (DSS) for viability; higher = more toxic; extreme values may be limits of the assay
U2OS [12] = assay: cell viability relative to DMSO; higher = less toxic
Vero E6 [13] = assay: as above
U2OS [14] = assay: relative viability EC50 (midpoint between 100% and the lowest measured viability); higher = less toxic

| SMILES | drug sensitivity score (Calu-3 [1]) | drug sensitivity score (HepG2 [2]) | drug sensitivity score (U2OS [3]) | drug sensitivity score (Vero E6 [4]) | cell viability (Caco-2 [5]; 1 nM) [%] | cell viability (Caco-2 [5]; 10 nM) [%] | cell viability (Caco-2 [5]; 100 nM) [%] | cell viability (Caco-2 [5]; 1000 nM) [%] | cell viability (Caco-2 [5]; 10000 nM) [%] | cell viability (Calu-3 [6]; 1 nM) [%] | cell viability (Calu-3 [6]; 10 nM) [%] | cell viability (Calu-3 [6]; 100 nM) [%] | cell viability (Calu-3 [6]; 1000 nM) [%] | cell viability (Calu-3 [6]; 10000 nM) [%] | cell viability (HepG2 [7]; 1 nM) [%] | cell viability (HepG2 [7]; 10 nM) [%] | cell viability (HepG2 [7]; 100 nM) [%] | cell viability (HepG2 [7]; 1000 nM) [%] | cell viability (HepG2 [7]; 10000 nM) [%] | relative viability EC50 (Caco-2 [8]) [µM] | relative viability EC50 (Calu-3 [9]) [µM] | relative viability EC50 (HepG2 [10]) [µM] | drug sensitivity score (Caco-2 [11]) | cell viability (U2OS [12]; 1 nM) [%] | cell viability (U2OS [12]; 10 nM) [%] | cell viability (U2OS [12]; 100 nM) [%] | cell viability (U2OS [12]; 1000 nM) [%] | cell viability (U2OS [12]; 10000 nM) [%] | cell viability (Vero E6 [13]; 1 nM) [%] | cell viability (Vero E6 [13]; 10 nM) [%] | cell viability (Vero E6 [13]; 100 nM) [%] | cell viability (Vero E6 [13]; 1000 nM) [%] | cell viability (Vero E6 [13]; 10000 nM) [%] | relative viability EC50 (U2OS [14]) [µM] |
| --- | --- | --- | --- | --- | --- | --- | --- | --- | --- | --- | --- | --- | --- | --- | --- | --- | --- | --- | --- | --- | --- | --- | --- | --- | --- | --- | --- | --- | --- | --- | --- | --- | --- | --- |
| O=C(CCCl)NCc1ccccc1 [beclamide] | 0 | 0 | 0 | 0 | – | – | – | – | – | – | – | – | – | – | – | – | – | – | – | – | – | – | – | – | – | – | – | – | – | – | – | – | – | – |
| NS(=O)(=O)c1ccc(NC(=O)Nc2ccc(F)cc2)cc1 [U-104] | 0 | 0 | – | – | 99.4 | 94.4 | 96.9 | 105 | 101 | 112 | 91.7 | 107 | 101 | 108 | 102 | 106 | 103 | 89.8 | 104 | > 10 | > 10 | > 10 | 0 | – | – | – | – | – | – | – | – | – | – | – |
| COc1ccc2c(c1OC)C(=O)O[C@@H]2[C@H]1c2cc3c(cc2CCN1C)OCO3 [hydrastine-(1R,9S)] | 0 | 0 | 0 | 0 | – | – | – | – | – | – | – | – | – | – | – | – | – | – | – | – | – | – | – | – | – | – | – | – | – | – | – | – | – | – |
| CC(C)(C)C1CCc2c(sc(NC(=O)c3ccco3)c2C(=O)O)C1 (stereo not given) [CaCCinh-A01] | 0 | 3 | 0 | 1.3 | 102 | 103 | 97.1 | 97.8 | 82.2 | 91.2 | 99.5 | 103 | 96.4 | 99.6 | 115 | 90.8 | 103 | 87.2 | 69.3 | > 10 | > 10 | – | 0.7 | 98.8 | 101 | 96.2 | 97.1 | 98 | 98.8 | 98.8 | 106 | 98.5 | 72.9 | > 10 |
| Cc1c(N)nc([C@H](CC(N)=O)NC[C@H](N)C(N)=O)nc1C(=O)N[C@H](C(=O)N[C@H](C)[C@@H](O)[C@H](C)C(=O)N[C@H](C(=O)NCCc1nc(-c2nc(C(=O)NCCCNCCCCN)cs2)cs1)[C@@H](C)O)[C@@H](O[C@@H]1O[C@@H](CO)[C@@H](O)[C@H](O)[C@@H]1O[C@@H]1O[C@H](CO)[C@@H](O)[C@H](OC(N)=O)[C@@H]1O)c1cnc[nH]1 [bleomycetin] | 5.2 | 4 | 3.4 | 3.9 | 106 | 102 | 100 | 90.9 | 78.7 | 94 | 95.4 | 93.1 | 76.5 | 51.3 | 99.4 | 104 | 98.1 | 82.7 | 59.9 | > 10 | – | – | 1.7 | 101 | 97.7 | 99.8 | 83.3 | 68.7 | 106 | 103 | 106 | 82.4 | 64.2 | – |
| Cc1ccc(-n2nc(C(C)(C)C)cc2NC(=O)NCc2cc(F)ccc2Oc2ccc3c(cnn3CCO)c2)cc1 [pexmetinib] | 0 | 7 | 4.5 | 1.4 | 100 | 93.2 | 91.4 | 84.3 | 81.4 | 100 | 85.9 | 93.2 | 95.8 | 91 | 96.9 | 109 | 104 | 90.7 | 0.1 | > 10 | > 10 | 2.4 | 2.1 | 96.8 | 90.8 | 97.1 | 80.9 | 54.3 | 97.6 | 100 | 91.2 | 104 | 64.7 | – |
| Cc1ncc([N+](=O)[O-])n1CC(C)O (stereo not given) [secnidazole] | 0.4 | 0 | 0 | 0 | – | – | – | – | – | – | – | – | – | – | – | – | – | – | – | – | – | – | – | – | – | – | – | – | – | – | – | – | – | – |
| Cc1cc(N2CCOCC2)ccc1Nc1nc(NC2CCCCC2)c2nc[nH]c2n1 | 0.4 | 9.1 | 6.1 | 7.4 | 102 | 104 | 101 | 88.5 | 69.4 | 100 | 98 | 98.6 | 98.4 | 85 | 99.1 | 107 | 98 | 51.8 | 43.5 | – | > 10 | 0.455 | 2.9 | 97 | 104 | 101 | 68 | 55.4 | 96.9 | 99.6 | 98.2 | 60.1 | 60.8 | – |
| Nc1ncnc2c1c(-c1cccc(OCc3ccccc3)c1)cn2[C@H]1C[C@@H](CN2CCC2)C1 [NVP-AEW541] | 3.3 | 7.4 | 4.5 | 2.4 | 99.8 | 97 | 94.5 | 80.8 | 45.1 | 112 | 103 | 99.4 | 93.3 | 57.2 | 96.4 | 93.6 | 92.4 | 68.1 | 32.3 | 1.4 | – | 1 | 5.2 | 98.1 | 97.9 | 106 | 86.6 | 52.5 | 100 | 102 | 99 | 92.9 | 69.6 | – |
| CN(C)CCN1C(=O)c2cccc3cc(N)cc(c23)C1=O [amonafide] | 1.4 | 5.2 | 1.7 | 3.3 | 99.9 | 96.1 | 97.9 | 108 | 69.7 | 94.8 | 96.2 | 99.3 | 104 | 65.1 | 92.9 | 108 | 113 | 93.6 | 23.9 | – | – | 2.48 | 1 | 101 | 92.7 | 95 | 100 | 64.6 | 97.8 | 93.3 | 95.9 | 94.1 | 54.8 | – |
| C[N+]1(C)[C@@H]2C[C@@H](OC(=O)[C@H](CO)c3ccccc3)C[C@H]1[C@@H]1O[C@@H]12 [methscopolamine] | 0 | 0 | 0 | 0 | – | – | – | – | – | – | – | – | – | – | – | – | – | – | – | – | – | – | – | – | – | – | – | – | – | – | – | – | – | – |
| O=C(CCCN1CCC(O)(c2ccc(Br)cc2)CC1)c1ccc(F)cc1 [bromperidol] | 0 | 0.8 | 0 | 0 | – | – | – | – | – | – | – | – | – | – | – | – | – | – | – | – | – | – | – | – | – | – | – | – | – | – | – | – | – | – |
| CO[C@H]1C[C@H](O[C@H]2[C@H](C)O[C@@H](O[C@@H]3/C(C)=C/C[C@@H]4C[C@@H](C[C@]5(C=C[C@H](C)[C@@H](C6CCCCC6)O5)O4)OC(=O)[C@@H]4C=C(C)[C@@H](O)[C@H]5OC/C(=C\C=C\[C@@H]3C)[C@]54O)C[C@@H]2OC)O[C@@H](C)[C@@H]1O [doramectin] | 1.8 | 2.5 | 3.7 | 1.4 | 102 | 92.9 | 93.9 | 96.8 | 62.5 | 102 | 95.4 | 105 | 93.8 | 75 | 112 | 104 | 98.1 | 108 | 44.9 | – | > 10 | 3.76 | 2.3 | 98.1 | 95.7 | 92.6 | 88.5 | 56.6 | 103 | 96.3 | 91.1 | 98.1 | 72.4 | – |
| CO[C@H]1C[C@@H]2CC[C@@H](C)[C@@](O)(O2)C(=O)C(=O)N2CCCC[C@H]2C(=O)O[C@H]([C@H](C)C[C@@H]2CC[C@@H](O)[C@H](OC)C2)CC(=O)[C@H](C)/C=C(\C)[C@@H](O)[C@@H](OC)C(=O)[C@H](C)C[C@H](C)/C=C/C=C/C=C/1C [sirolimus] | 29 | 17.5 | 21.2 | 17.5 | 72.7 | 55.4 | 56.8 | 52 | 54.2 | 65.3 | 42.2 | 42.6 | 47.5 | 47.3 | 78.3 | 63.9 | 60.4 | 66.1 | 53.7 | – | < 0.001 | – | 22.7 | 77 | 57.9 | 60.3 | 55.8 | 59.9 | 92.3 | 69.4 | 58.6 | 55.9 | 60.6 | – |
| OCc1ccccc1O[C@@H]1O[C@H](CO)[C@@H](O)[C@H](O)[C@H]1O [salicin] | 0 | 0 | 0 | 0 | – | – | – | – | – | – | – | – | – | – | – | – | – | – | – | – | – | – | – | – | – | – | – | – | – | – | – | – | – | – |
